Melting point data for two molecules are collected here from patent US20070037830A1, “2-Adamantyl derivatives as p2X7 receptor antagonists” (ASTRAZENECA AB, priority 2003, published 2007).

As a reminder, the melting point is the temperature, or range, at which the solid turns liquid.

In the case of `COc1ccc(C)c(NC(=O)CC2C3CC4CC(C3)CC2C4)c1` (centres unmarked) [Example 1, 2-(2-Adamantyl)-N-(5-methoxy-2-methylphenyl)acetamide], the melting point is 193 to 196 °C.
For `O=C(CC1C2CC3CC(C2)CC1C3)Nc1cccc2[nH]ccc12` (centres unmarked) [Example 2, 2-(2-Adamantyl)-N-1H-indol-4-ylacetamide] the value was 206 to 208 °C.
